Our source for the carcinogen call values is PubChem BioAssay AID1259411 (Chemical Carcinogenesis Research Information System (CCRIS), 2018).

The test system of the series is rodent carcinogenicity bioassays, tumor incidence. The experiment in a line: CCRIS carcinogenicity studies. In a few lines:
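NCI-built, expert-reviewed records of carcinogenicity and related test outcomes (mutagenicity, tumor promotion/inhibition) compiled from published and report sources, historical span 1985-2011, not updated.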

Calls of active or inactive are those of the source. No rule for the calls is given here.

In the case of `CC(C)n1c(/C=C/[C@H](O)C[C@H](O)CC(=O)O)c(-c2ccc(F)cc2)c2ccccc21`, the carcinogen call is “active; positive” (Species: MOUSE, Strain/Sex: CD-1/FEMALE (70/GROUP), Route: ORAL (GAVAGE), Dose: 0, 0.3, 15, 30 MG/KG/D IN 1% CARBOXYMETHYLCELLULOSE FOR 85 WK, Dose: 0, 0.3, 15, 30 MG/KG/D IN 1% CARBOXYMETHYLCELLULOSE FOR 85 WK, Tumor Site: Type of Lesion: FORESTOMACH: SQUAMOUS PAPILLOMAS); “inactive; negative” (Species: MOUSE, Strain/Sex: CD-1/FEMALE (80/GROUP), Route: ORAL (GAVAGE), Dose: 0, 50, 150, 350 MG/KG/D IN 1% CARBOXYMETHYLCELLULOSE FOR 93 WK, Dose: 0, 50, 150, 350 MG/KG/D IN 1% CARBOXYMETHYLCELLULOSE FOR 93 WK); “active; positive” (Species: MOUSE, Strain/Sex: CD-1/FEMALE, Route: GAVAGE, Dose: 0, 0.3, 15, 30 MG/KG/D FOR 52 OR 85 WK (STUDY DURATION: 86 WK), Dose: 0, 0.3, 15, 30 MG/KG/D FOR 52 OR 85 WK (STUDY DURATION: 86 WK), Tumor Site: Type of Lesion: FORESTOMACH: PAPILLOMA); “inactive; negative” (Species: MOUSE, Strain/Sex: CD-1/FEMALE, Route: GAVAGE, Dose: 0, 50, 150, 350 MG/KG/D FOR 52 OR 84 WK (HIGH DOSE GROUP TERMINATED IN WK 23) (STUDY DURATION: 93 WK), Dose: 0, 50, 150, 350 MG/KG/D FOR 52 OR 84 WK (HIGH DOSE GROUP TERMINATED IN WK 23) (STUDY DURATION: 93 WK)); “inactive; negative” (Species: MOUSE, Strain/Sex: CD-1/MALE (70/GROUP), Route: ORAL (GAVAGE), Dose: 0, 0.3, 15, 30 MG/KG/D IN 1% CARBOXYMETHYLCELLULOSE FOR 85 WK, Dose: 0, 0.3, 15, 30 MG/KG/D IN 1% CARBOXYMETHYLCELLULOSE FOR 85 WK); “inactive; negative” (Species: MOUSE, Strain/Sex: CD-1/MALE (80/GROUP), Route: ORAL (GAVAGE), Dose: 0, 50, 150, 350 MG/KG/D IN 1% CARBOXYMETHYLCELLULOSE FOR 84 WK, Dose: 0, 50, 150, 350 MG/KG/D IN 1% CARBOXYMETHYLCELLULOSE FOR 84 WK). Also, the carcinogen call (Species: MOUSE, Strain/Sex: CD-1/MALE, Route: GAVAGE, Dose: 0, 0.3, 15, 30 MG/KG/D FOR 52 OR 85 WK (STUDY DURATION: 86 WK), Dose: 0, 0.3, 15, 30 MG/KG/D FOR 52 OR 85 WK (STUDY DURATION: 86 WK)) is “inactive; negative”; the carcinogen call (Species: MOUSE, Strain/Sex: CD-1/MALE, Route: GAVAGE, Dose: 0, 50, 150, 350 MG/KG/D FOR 52 OR 84 WK (HIGH DOSE GROUP TERMINATED IN WK 23) (STUDY DURATION: 84 WK), Dose: 0, 50, 150, 350 MG/KG/D FOR 52 OR 84 WK (HIGH DOSE GROUP TERMINATED IN WK 23) (STUDY DURATION: 84 WK)) is “inactive; negative”; the carcinogen call (Species: RAT, Strain/Sex: CD (SPRAGUE-DAWLEY)/FEMALE (75/GROUP), Route: ORAL (GAVAGE), Dose: 0, 0.03, 0.3, 3 MG/KG/D IN 1% CARBOXYMETHYLCELLULOSE FOR 101 WKS, Dose: 0, 0.03, 0.3, 3 MG/KG/D IN 1% CARBOXYMETHYLCELLULOSE FOR 101 WKS) was “inactive; negative”; the carcinogen call (Species: RAT, Strain/Sex: CD (SPRAGUE-DAWLEY)/FEMALE (75/GROUP), Route: ORAL (GAVAGE), Dose: 0, 6, 9, 18-24 MG/KG/D IN 1% CARBOXYMETHYLCELLULOSE FOR 104 WKS, Dose: 0, 6, 9, 18-24 MG/KG/D IN 1% CARBOXYMETHYLCELLULOSE FOR 104 WKS) was “inactive; negative”; the carcinogen call (Species: RAT, Strain/Sex: CD (SPRAGUE-DAWLEY)/MALE (75/GROUP), Route: ORAL (GAVAGE), Dose: 0, 0.03, 0.3, 3 MG/KG/D IN 1% CARBOXYMETHYLCELLULOSE FOR 95 WKS, Dose: 0, 0.03, 0.3, 3 MG/KG/D IN 1% CARBOXYMETHYLCELLULOSE FOR 95 WKS) is “inactive; negative”; the carcinogen call (Species: RAT, Strain/Sex: CD (SPRAGUE-DAWLEY)/MALE (75/GROUP), Route: ORAL (GAVAGE), Dose: 0, 6, 9, 18-24 MG/KG/D IN 1% CARBOXYMETHYLCELLULOSE FOR 104 WKS, Dose: 0, 6, 9, 18-24 MG/KG/D IN 1% CARBOXYMETHYLCELLULOSE FOR 104 WKS, Tumor Site: Type of Lesion: THYROID: FOLLICULAR ADENOMA (11/75)) was “active; positive”. Further, the carcinogen call runs as follows: (Species: RAT, Strain/Sex: STRAIN-CD/FEMALE, Route: GAVAGE, Dose: 0, 0.03, 0.3, 3 MG/KG/D FOR 95 WK (STUDY DURATION: 114 WK), Dose: 0, 0.03, 0.3, 3 MG/KG/D FOR 95 WK (STUDY DURATION: 114 WK)) “inactive; negative”; (Species: RAT, Strain/Sex: STRAIN-CD/FEMALE, Route: GAVAGE, Dose: 0, 6, 9, 18-24 MG/KG/D FOR 104 WK (STUDY DURATION: 104 WK), Dose: 0, 6, 9, 18-24 MG/KG/D FOR 104 WK (STUDY DURATION: 104 WK)) “inactive; negative”; (Species: RAT, Strain/Sex: STRAIN-CD/MALE, Route: GAVAGE, Dose: 0, 0.03, 0.3, 3 MG/KG/D FOR 95 WK (STUDY DURATION: 114 WK), Dose: 0, 0.03, 0.3, 3 MG/KG/D FOR 95 WK (STUDY DURATION: 114 WK)) “inactive; negative”; (Species: RAT, Strain/Sex: STRAIN-CD/MALE, Route: GAVAGE, Dose: 0, 6, 9, 18-24 MG/KG/D FOR 104 WK (STUDY DURATION: 104 WK), Dose: 0, 6, 9, 18-24 MG/KG/D FOR 104 WK (STUDY DURATION: 104 WK)) “inactive; negative”.
Regarding `CCNC(=S)NCC`, the carcinogen call reads like this: (Species: MOUSE, Strain/Sex: B6C3F1/FEMALE, Route: ORAL, Dose: 0, 250, 500 PPM IN DIET, Dose: 0, 250, 500 PPM IN DIET) “inactive; negative”; (Species: MOUSE, Strain/Sex: B6C3F1/MALE, Route: ORAL, Dose: 0, 250, 500 PPM IN DIET, Dose: 0, 250, 500 PPM IN DIET) “inactive; negative”; (Species: RAT, Strain/Sex: F344/FEMALE, Route: ORAL, Dose: 0, 125, 250 PPM IN DIET, Dose: 0, 125, 250 PPM IN DIET, Tumor Site: Type of Lesion: THYROID GLAND: FOLLICULAR CELL CARCINOMA OR FOLLICULAR CELL ADENOMA) “active; positive”; (Species: RAT, Strain/Sex: F344/MALE, Route: ORAL, Dose: 0, 125, 250 PPM IN DIET, Dose: 0, 125, 250 PPM IN DIET, Tumor Site: Type of Lesion: THYROID GLAND: FOLLICULAR CELL CARCINOMA OR FOLLICULAR CELL ADENOMA) “active; positive”.
Consider `Oc1ccc(-c2cc(Cl)c(Cl)c(Cl)c2Cl)cc1`, for which the carcinogen call is, setting by setting: (Species: MOUSE, Strain/Sex: BALB/CCRGL/FEMALE, Route: SUBCUTANEOUS, Dose: 40 UG DAILY FOR 5 D BEGINNING 16 HR AFTER BIRTH (STUDY DURATION: 20 MO), Tumor Site: Type of Lesion: MAMMARY GLAND: CARCINOMA (4/30), CERVICOVAGINAL TRACT: CARCINOMA (4/30)) “active; positive”; (Species: MOUSE, Strain/Sex: BALB/CCRGL/FEMALE, Route: SUBCUTANEOUS, Dose: 400 UG DAILY FOR 5 D BEGINNING 16 HR AFTER BIRTH (STUDY DURATION: 20 MO), Tumor Site: Type of Lesion: CERVICOVAGINAL TRACT: CARCINOMA (5/24)) “active; positive”.
In the case of `CN[C@@H](C)[C@H](O)c1ccccc1`, the carcinogen call runs as follows: (Species: MOUSE, Strain/Sex: B6C3F1/FEMALE, Route: ORAL, Dose: 0, 125, 250 PPM IN DIET FOR 103 WK, Dose: 0, 125, 250 PPM IN DIET FOR 103 WK) “inactive; negative”; (Species: MOUSE, Strain/Sex: B6C3F1/MALE, Route: ORAL, Dose: 0, 125, 250 PPM IN DIET FOR 103 WK, Dose: 0, 125, 250 PPM IN DIET FOR 103 WK) “inactive; negative”; (Species: RAT, Strain/Sex: F344/FEMALE, Route: ORAL, Dose: 0, 125, 250 PPM IN DIET FOR 103 WK, Dose: 0, 125, 250 PPM IN DIET FOR 103 WK) “inactive; negative”; (Species: RAT, Strain/Sex: F344/MALE, Route: ORAL, Dose: 0, 125, 250 PPM IN DIET FOR 103 WK, Dose: 0, 125, 250 PPM IN DIET FOR 103 WK) “inactive; negative”.
